# According to paper PMC10762078, “Role of UPF1-LIN28A interaction during early differentiation of pluripotent stem cells” (Nature Communications, 2024):
# How the values were obtained:
# Format in all cases: cell-based
# [1] = system: nonsense-mediated mRNA decay (NMD); experiment: NMD reporter mRNA by RT-qPCR in UPF1-depleted HeLa cells with FLAG-LIN28A and CPP-peptides (Supplementary Fig. 5d); settings: siUPF1 + FLAG-LIN28A, 2 μM, n = 3
# Experimental: For CPP-conjugated peptide delivery, HeLa, 293T, and PA-1 cells were incubated with CPP-conjugated peptides or CPP-FITC at 2 μM in DMEM with 10% FBS for 12 h a day before cell harvest. hPSCs were treated with CPP-conjugated peptides at 10 μM in mTeSR Plus Medium, and the peptide-containing medium was changed every day over 10 days. The ROCK inhibitor (Tocris Bioscience, Y-27632) treated-hPSCs were dissociated into single cells using Accutase (Merck, SCR005) and differentiated into ectoderm, mesoderm, and endoderm using the STEMdiff Trilineage Differentiation Kit ([…] Technologies, 05230) following the manufacturer’s protocol. Differentiated cells treated with CPP-conjugated peptides were analysed at 0, 3, and 5 days for ectoderm and endoderm, and at 0, 3, and 4 days for mesoderm. […]
# cDNA was synthesised using RevertAid Reverse Transcriptase (Thermo Fisher Scientific, EP0441) with synthesised random hexamer (Macrogen) for total RNA or stem-loop primers for miRNA. For RT-qPCR reactions, the SensiFAST SYBR No-ROX kit (Meridian Bioscience) was used according to the manufacturer’s protocol. All data analysis and visualisation were conducted using R 3.6.1 [www.r-project.org] or GraphPad Prism 10. RT primers for miRNA and RT-qPCR primer sequences are provided in Supplementary Data 6. […]
# UPF1-LIN28A interaction = experiment: Proximity ligation assay (PLA) of UPF1-LIN28A complexes; settings: LIN28A-overexpressing HeLa and CHA15 cells, n = 3
# Experimental: The in situ proximity ligation assay (PLA) was performed on fixed and permeabilised cells using Duolink In Situ Red kit mouse/rabbit (Sigma-Aldrich, DUO92101), according to the manufacturer’s protocol. Briefly, fixed and permeabilised cells were incubated with a blocking solution for 1 h at 37 °C and then incubated with the following primary antibodies: anti-UPF1 (Cell Signaling Technology, 12040; 1:200) and LIN28A (Cell Signaling Technology, 5930; 1:200) overnight at 4 °C. After incubation, the coverslips were washed twice with 1× buffer A, followed by incubation with PLA probes for 1 h at 37 °C. After washing twice with 1× buffer A for 5 min, the coverslip was incubated with the ligation solution for 30 min at 37 °C. Coverslips were washed twice with 1× buffer A, followed by an amplification step with polymerase for 100 min at 37 °C. Finally, the coverslip was washed twice with 1× buffer B and once with 0.01× buffer B and then mounted in […] with DAPI mounting medium (Vector Laboratories, H1200).
# Immunofluorescence staining, proximity ligation assay imaging, and cell-penetrating efficiency of CPP-FITC were imaged with a confocal laser scanning microscope (Leica, TSC SP5) or immunofluorescence microscope (Leica, DM5000B). Z-stacks were captured, with sections spanning the entire cell. […]
# [2] = system: nonsense-mediated mRNA decay (NMD); experiment: NMD reporter (Gl, GPx1) mRNA by RT-qPCR in LIN28A-expressing HeLa cells with CPP-peptides (Fig. 5c); settings: FLAG control (no LIN28A) HeLa, CPP-peptide
Substance,effect on NMD in absence of UPF1 [1],PLA signal of UPF1-LIN28A complexes (UPF1-LIN28A interaction),"relative GPx1 mRNA level ([2]; normalised to MUP, replicate set2)","relative Gl mRNA level ([2]; normalised to MUP, replicate set3)","GPx1 mRNA, mean ([2]; mean in t-test output, n = 3)","Gl mRNA, mean ([2]; mean in t-test output, n = 3)"
"KKKWCRKKKSSADEKRYRALKRTAERELLMNA [CPP-P8, CPP conjugated to P8]",did not affect NMD in the absence of LIN28A or UPF1,weaker signals than CPP-P1 or -P2,,,,
"N-QKLDQKELQLEPM-C [P1, reference compound]",,,1.035,1.014,0.2656,0.4223
